A short description of series [1]: Toxicity against Artemia salina L EACH. The class given is organism-based. Particulars: in vivo.
The subject of series [2] is Gambusia affinis. Description: Toxicity in Gambusia affinis upto 100 ug/mL by lethality assay. The series is classed as organism-based. As to conditions: in vivo.

On to `CC(C)CCC[C@@H](C)COS(=O)(=O)[O-].[Na+]`, for which the LC50 in series [1] amounted to 17.8 µg/mL. The Activity result in series [2] is “Non-toxic”.
